Format in all cases: functional
Assay [1] relates to Rattus norvegicus. Put plainly: Percent glycaemia evolution at 200 mg/kg at 2 hr after the last administration for 4 days chronic treatment (J4) in Wistar rats.
In assay [2] the test system is Rattus norvegicus. Put plainly: Percent glycaemia evolution at 200 mg/kg at 2 hr after a sharp administration (J1) in Wistar rats.
The test system of assay [3] is Rattus norvegicus. Put plainly: Percent glycaemia evolution at 20 mg/kg at 2 hr after the last administration for 4 days chronic treatment (J4) in Wistar rats.
Assay [4] relates to Rattus norvegicus. Put plainly: Percent glycaemia evolution at 20 mg/kg at 2 hr after a sharp administration (J1) in Wistar rats.
In assay [5] the test system is Rattus norvegicus. Put plainly: Number of deaths at 200 mg/kg at 2 hr after the last administration for 4 days chronic treatment (J4) in Wistar rats; 4 death/5.
Assay [6] deals with Rattus norvegicus. Put plainly: Number of deaths at 20 mg/kg at 2 hr after the last administration for 4 days chronic treatment (J4) in Wistar rats; 1 death/5.

`CCOc1cc(C(=O)Nc2nn[nH]n2)nc2ccc(F)cc12`: the Glycaemia evolution was -6% with Rattus norvegicus [1], 9% in the assay with Rattus norvegicus [2], 4% in the assay with Rattus norvegicus [3] and 8% with Rattus norvegicus [4].
Consider `NC(=O)NNC(=O)c1cc(O)c2cc(F)ccc2n1`, for which the Glycaemia evolution in the assay on Rattus norvegicus [1] is given as -14%; in the assay with Rattus norvegicus [2], -7%; in the assay on Rattus norvegicus [3], -16%; in the assay on Rattus norvegicus [4], -6%.
The matching figures for `CCOc1cc(C(=O)N=C(N)N)nc2cc(OC)ccc12`: 2%, 6%, -2% and 2%.
For `CCOc1cc(C(=O)N=C(N)N)nc2ccc(F)cc12.Cl`, in that order: -30%, -5%, -10% and -8%.
In the case of `Cl.N=C(N)NC(=O)c1cc(O)c2cc(F)ccc2n1`, the Glycaemia evolution in the assay with Rattus norvegicus [1] was -14%; with Rattus norvegicus [2] it was -7%; with Rattus norvegicus [3] it was -15%; in the assay with Rattus norvegicus [4] it was -5%.
The matching figures for `CCn1cc(C(=O)N=C(N)N)c(=O)c2cc(OC)ccc21.Cl`: -9%, 0%, 0% and 0%.
For `COc1ccc2ncc(C(=O)N=C(N)N)c(O)c2c1.Cl`, in that order: 3%, -8%, 3% and 5%.
For `CCOc1cc(C(=O)NN=C(N)N)nc2ccc(F)cc12.Cl`, in that order: -14%, -4%, -3% and 6%.
Take `Cl.N=C(N)NC(=O)c1cc(Cl)c2cc(F)ccc2n1`: the Glycaemia evolution in the assay with Rattus norvegicus [2] was 58%; in the assay on Rattus norvegicus [4], 19%. For the same molecule, the No. of deaths amounted to 4 in the assay on Rattus norvegicus [5] and 1 in the assay with Rattus norvegicus [6].
Consider `CCn1cc(C(=O)N=C(N)N)c(=O)c2ccc(C)nc21.Cl`, for which the Glycaemia evolution with Rattus norvegicus [1] is -21%; in the assay with Rattus norvegicus [2], -4%; in the assay with Rattus norvegicus [3], -11%; with Rattus norvegicus [4] it was 1%.
As to `CCN1CC(C(=O)N/N=C(\N)N=C(N)N)C(=O)c2cc(OC)ccc21.Cl` (stereo not given), the Glycaemia evolution in the assay with Rattus norvegicus [1] was -5%; with Rattus norvegicus [2], 2%; in the assay with Rattus norvegicus [3], -2%; in the assay with Rattus norvegicus [4], -3%.
With `CCOc1cc(C(=O)NNC(N)=O)nc2ccc(F)cc12`, the Glycaemia evolution in the assay with Rattus norvegicus [1] is -3%; with Rattus norvegicus [2], 8%; in the assay on Rattus norvegicus [3], -8%; in the assay with Rattus norvegicus [4], 3%.
Take `Cl.N=C(N)NNC(=O)c1cc(O)c2cc(F)ccc2n1`: the Glycaemia evolution in the assay on Rattus norvegicus [1] is -2%; in the assay on Rattus norvegicus [2], 8%; in the assay on Rattus norvegicus [3], 4%; in the assay with Rattus norvegicus [4], 8%.
For `CCOc1cc(C(=O)N=C(N)N)nc2cc3c(cc12)OCO3.Cl`, the Glycaemia evolution in the assay with Rattus norvegicus [1] was -7%; in the assay with Rattus norvegicus [2], -4%; in the assay on Rattus norvegicus [3] it was -6%; with Rattus norvegicus [4], 1%.
For the molecule `CCn1cc(C(=O)NN=C(N)N)c(=O)c2cc(OC)ccc21.Cl`, the Glycaemia evolution with Rattus norvegicus [1] was -6%; with Rattus norvegicus [2], 6%; in the assay with Rattus norvegicus [3], -12%; in the assay with Rattus norvegicus [4], -10%.

The record behind these values is ChEMBL document CHEMBL1133273, “Synthesis and evaluation of quinoline carboxyguanidines as antidiabetic agents” (2000).
